This note sets out measurements from PubChem BioAssay (NCI).

The structures appear in SMILES notation. “And” between values parts separate entries of the source, which are not always exact repeats. Equal values may be shown once.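 All cell lines were grown in 96-well plates and treated with compound for 48 hours. At the GI50, growth is halved. TGI: concentration producing complete growth inhibition.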

Common to all, as to experiment: NCI tumour cell line growth inhibition, 48 h
The subject of experiment [1] is MDA-MB-435.
Experiment [2] concerns EKVX NSCLC.
Experiment [3] concerns T-47D breast.
Experiment [4] deals with UACC-257 melanoma.
Experiment [5] has as its system SK-OV-3 ovarian.
Experiment [6] concerns BT-549 breast.
Experiment [7] has as its system MCF7 breast.
For experiment [8], the system named is DMS 273 small cell lung.

With `COc1cc(/C=N/O)nc(-c2ccccn2)c1`, the GI50 in experiment [1] was 0.492 µM; in experiment [2], 0.342 µM; in experiment [3] it was 0.465 µM; in experiment [4], 0.679 µM; in experiment [6] it was 0.803 µM; in experiment [7], 0.347 µM. Besides, the TGI in experiment [1] is more than 100 µM; in experiment [2], more than 100 µM; in experiment [3], more than 100 µM; in experiment [4] it was 9.43 µM; in experiment [5] it was more than 100 µM; in experiment [6], more than 100 µM. Moreover, the TGI in experiment [7] was more than 100 µM.
Regarding `CCCCc1oc2ccccc2c1C(=O)c1cc(I)c(OCCN(CC)CC)c(I)c1`, the GI50 is 2.41 µM in experiment [1]; 2.86 µM in experiment [2]; 3.16 µM in experiment [3]; 2.32 µM in experiment [4]; 2.69 µM in experiment [5]; 3.26 µM in experiment [6]. The GI50 in experiment [7] was 1.78 µM. For the same compound, the TGI in experiment [1] is 6.53 µM; in experiment [2], 14.8 µM and 47.1 µM; in experiment [3] it was 12.2 µM; in experiment [8] it was 7.74 µM; in experiment [4] it was 6.42 µM and 9.04 µM; in experiment [5] it was 6.41 µM and 20.1 µM. In addition, the TGI in experiment [6] is 9.38 µM; in experiment [7] it was 3.71 µM and 10.8 µM.
Regarding `COc1ccc2nc(C3=CN(C4OC(CO)C(O)C(O)C4O)C4C=CC=CC34)sc2c1` (stereo not given), the GI50 in experiment [1] is 37.1 µM; in experiment [2] it was 39.7 µM; in experiment [3], 45 µM; in experiment [4] it was 28 µM; in experiment [5], 96 µM; in experiment [6], 33.9 µM. For the same compound, in experiment [7], the GI50 is more than 100 µM. Moreover, the TGI is more than 100 µM in experiment [1]; more than 100 µM in experiment [2]; more than 100 µM in experiment [3]; 89.3 µM in experiment [4]; more than 100 µM in experiment [5]; more than 100 µM in experiment [6]. Moreover, in experiment [7], the TGI is more than 100 µM.
Turning to `O=C(Nn1c2c(sc1=NC1CC1)C(=O)c1ccccc1C2=O)c1cc2ccc1CCc1ccc(cc1)CC2`, the GI50 in experiment [1] is 1.76 µM; in experiment [2] it was 1.87 µM; in experiment [3] it was 2.49 µM; in experiment [4], 1.69 µM; in experiment [5], 7.03 µM; in experiment [6], 1.5 µM. For the same compound, the GI50 in experiment [7] is 1.42 µM. Moreover, the TGI in experiment [1] amounted to 3.23 µM; in experiment [2] it was 12.5 µM; in experiment [3] it was 14.4 µM; in experiment [4], 3.41 µM; in experiment [5], 21.4 µM; in experiment [6] it was 2.91 µM. In experiment [7], this compound yielded a TGI of 3.29 µM.
With `CCOC(=O)c1cn2ncnc(Oc3ccc(NC(=O)NCCN(CC)CC)c(Cl)c3)c2c1C`, the GI50 in experiment [1] is 1.87 µM; in experiment [2] it was 3.79 µM; in experiment [3], 2.77 µM; in experiment [4] it was 1.89 µM; in experiment [5], 20.7 µM; in experiment [6] it was 4.96 µM. For the same compound, in experiment [7], the GI50 was 2.14 µM. In addition, the TGI in experiment [1] amounted to 3.51 µM; in experiment [2] it was 21.5 µM; in experiment [3], 8.72 µM; in experiment [4] it was 4.05 µM; in experiment [5] it was 50.2 µM; in experiment [6] it was 19.5 µM. In experiment [7], the TGI is 5.21 µM.
Take `C[C@@H]1CCC2[C@@H](C)[C@H](OC(=O)CCC(=O)NCCNC(=O)Cc3cc(=O)oc4cc(N(C)C)ccc34)O[C@@H]3O[C@]4(C)CC[C@@H]1C23OO4` (stereo not given in full): the GI50 in experiment [1] is 0.472 µM; in experiment [2], 0.645 µM; in experiment [3] it was 0.862 µM; in experiment [4], 4.04 µM; in experiment [5], 29 µM; in experiment [6] it was 3.07 µM. Moreover, in experiment [7], the GI50 was 2.92 µM. In addition, the TGI in experiment [1] was 16.8 µM; in experiment [2] it was 9.47 µM; in experiment [3], 50.2 µM; in experiment [4], more than 100 µM; in experiment [5], more than 100 µM; in experiment [6], more than 100 µM. In experiment [7], this compound came in with a TGI of 28.2 µM.
Regarding `CN1CCN(c2ccc([N+](=O)[O-])c3no[n+]([O-])c23)CC1`, the GI50 in experiment [1] was 0.642 µM; in experiment [3], 0.6 µM; in experiment [4], 0.472 µM; in experiment [5], 0.87 µM; in experiment [6], 0.841 µM; in experiment [7], 0.141 µM. Further, the TGI is 2.51 µM and 1.99 µM in experiment [1]; 2.83 µM and 2.92 µM in experiment [2]; 1.16 µM and 2.65 µM in experiment [3]; 2.69 µM and 1.6 µM in experiment [4]; 1.73 µM and 2.12 µM in experiment [5]; 4.64 µM and 2.12 µM in experiment [6]. The TGI in experiment [7] is 1.79 µM and 0.985 µM.
Regarding `CC(=O)[CH-]C(=O)c1ccccc1.CC(=O)[CH-]C(=O)c1ccccc1.CC[O-].O=C1C=C([O-])C(=O)c2ccccc21.[Ti+4]`, the GI50 in experiment [2] was 25.9 µM; in experiment [8], 96.4 µM; in experiment [4], 8.49 µM; in experiment [5], 70.8 µM. For the same compound, the TGI in experiment [2] is more than 100 µM; in experiment [8], more than 100 µM; in experiment [4], 86 µM; in experiment [5] it was more than 100 µM.
On to `COC(=O)c1cccc2c1Oc1ccccc1S2`, for which the TGI in experiment [1], in experiment [2], in experiment [3], in experiment [4], in experiment [5] and in experiment [6] was more than 100 µM in each case. Moreover, the TGI in experiment [7] was more than 100 µM.
As to `CC(C)(C)n1cc(-c2ccnc(NCCCNS(=O)(=O)c3ccc(Cl)cc3)c2)c(-c2cccc(O)c2)n1`, the GI50 in experiment [1] was 1.79 µM; in experiment [2] it was 2.04 µM; in experiment [3] it was 1.82 µM; in experiment [4], 1.86 µM; in experiment [5], 2.35 µM; in experiment [6], 1.67 µM. The GI50 in experiment [7] is 1.84 µM. Moreover, the TGI in experiment [1] was determined as 3.41 µM; in experiment [2] it was 5.36 µM; in experiment [3] it was 5.51 µM; in experiment [4], 3.81 µM; in experiment [5], 6.08 µM; in experiment [6], 3.16 µM. In addition, in experiment [7], the TGI was determined as 3.91 µM.
Consider `CN(C)CCC(=O)NCc1c2nc3ccccc3nc2n2ccccc12`, for which the GI50 is 67.8 µM in experiment [1]; 43.1 µM in experiment [2]; more than 100 µM in experiment [3]; 73.1 µM in experiment [4]; more than 100 µM in experiment [5]; 23.3 µM in experiment [6]. Moreover, the GI50 in experiment [7] was 17.4 µM. Also, the TGI was more than 100 µM in experiment [1]; more than 100 µM in experiment [2]; more than 100 µM in experiment [3]; more than 100 µM in experiment [4]; more than 100 µM in experiment [5]; 60.8 µM in experiment [6]. This compound also gave a TGI in experiment [7] of more than 100 µM.
